Source: patent US7541331B2, “Surfactant treatment regimen” (Discovery Laboratories, Inc., priority 2005, dated 2009)

Tested on: premature neonates
Experiment: Pilot phase 2 open study of lucinactant delivered as an aerosol via nCPAP for prevention of RDS
Settings: in vivo
Procedure: This example provides a protocol for administration of lucinactant as an aerosol via nCPA to premature infants. This protocol has been used in a pilot phase 2, open study to evaluate the feasibility, safety, and tolerability of lucinactant delivered as an aerosol via nCPAP for the prevention of RDS in premature neonates.
Lucinactant was administered using an approved vibrating machine device (Aeroneb-Pro® or equivalent) and delivered via nCPAP within 30 minutes of birth. In a first treatment group, 20 mg/ml of lucinactant was administered within the first 30 minutes of life continually over three hours. Up to three retreatments were permitted over a 48 hour period, with each treatment separated by at least 3 hours (from end of previous treatment). In a second treatment group, 20 mg/ml of lucinactant was administered within the first 30 minutes of life continually over three hours. Up to three retreatments were permitted over a 48 hour period, with each treatment separated by at least one hours (from end of previous treatment).
Qualified premature neonates were sequentially enrolled and stratified by gestational age (stratum 1:30-32 completed weeks followed by stratum 2:28-29 completed weeks) into the first treatment regimen group (3 hours on aerosol treatment/3 hours off aerosol treatment) and received aerosolized lucinactant via nCPAP. Safety and tolerability data were evaluated after enrollment of every five neonates. Once enrollment in the first treatment group was completed, neonates were sequentially enrolled and stratified into the second treatment group (3 hours on aerosol treatment/1 hours off aerosol treatment). All neonates enrolled were evaluated through 28 days of age.

Question: What does the source list for lucinactant?
Answer: adverse effects considered related to both study drug and the device: 35.3%; adverse effects considered related to study drug: 47.1%; adverse effects considered related to the device: 11.8%; incidence of apnea: 94.1%; incidence of hypocalcemia: 29.4%; incidence of oxygen saturation decreased: 70.6%; incidence of patent ductus arteriosus: 35.3%; safety and tolerability of treatment: generally safe and well tolerated; serious adverse effects considered related to the device: Two; total adverse effects reported: 83; total serious adverse effects reported: 5
